Laboratory results as given in patent US20260284016A1, “COMBINATIONS AND METHODS FOR ENHANCING CHECKPOINT INHIBITOR THERAPIES IN CANCER TREATMENT” (PURDUE RESEARCH FOUNDATION, priority 2004, published 2026).

What was measured:
[1] = system: M2-induced THP-1 macrophages; test: Reprogramming of M2-polarized THP-1 macrophages, marker mRNA by qPCR; type: cell-based, human
Description: THP-1 cells were seeded into 96-well plates at a density of 60,000 cells/well. Cells were differentiated into unpolarized macrophages by 48 hours incubation with 200 nM PMA followed by 24 hours incubation in fresh RPMI medium. […] Cultures were maintained at 37° C., in a humidified 5% CO2 incubator.
Total RNA was isolated from 1×10^5-2×10^5 macrophages using a Quick-RNA™ MicroPrep kit (Zymo Research, Irvine, CA) according to the manufacturer-recommended protocol. The RNA samples were then reverse-transcribed into cDNA using high-capacity cDNA reverse transcription kits (Applied Biosystems, Foster City, CA; #4368814), qPCR analyses were performed using the iTaq™ Universal SYBR Green SuperMix (Bio-Rad Laboratories GmbH, Hercules, CA; #1725121), iCycler thermocycler, and iCycler iQ 3.0 software (Bio-Rad Laboratories GmbH, Hercules, CA) to track the expression of markers characteristic of macrophage polarization states, IL-6, CXCL10, IFNα, IFN-γ and CD86 were used as markers for an M1 phenotype, while CCL18. CD206, CD163 and Arg1 were employed as markers for the M2 phenotype, IL-1β, PDGFβ, MMP9 and TIMP 3 were measured as indicators of an anti-inflammatory phenotype. IRAK-4 was used as an indicator of TLR7 stimulation. To control for specificity of the amplification products, a melting curve analysis was performed. […] Each sample was analyzed independently in triplicate for each marker.
In both data sets, the cells were harvested for gene analysis by qPCR.
Primarily, human monocytic (THP-1) cells were induced to the M2-like phenotype using the methods and materials previously described. In particular, THP-1 cells were seeded into 96-well plates at a density of 60,000 cells/well. Cells were differentiated into unpolarized macrophages by 48 h incubation with 200 nM PMA followed by 24 hours incubation in fresh RPMI medium. The resulting macrophages were polarized to an M2-like phenotype by incubation with […] IL-4, 20 ng/ml […], and 5 ng/mL IL-6 for 48h. Cultures were maintained at 37° C. in a humidified 5% CO2 incubator.
In addition to the nonconjugated TLR7 agonist, conjugated compounds of the present disclosure were likewise evaluated. Human THP-1 cells were induced to macrophages having the M2-like phenotype per the methods set forth herein (e.g., using 20 ng/mL IL-4, 20 ng/mL IL-13, 5 ng/mL IL-6), then reprogrammed with different nM concentrations of various compounds of the present disclosure for 2 hours; namely, a nonconjugated (free drug) TLR7 agonist compound having formula I and/or II (data shown collectively as Compound 3A), a folate-conjugated TLR7 agonist compound having formula XV (having a releasable linker) (e.g., Compound 3B), a folate-conjugated TLR7 agonist compound having formula XVII (having a non-releasable linker) (e.g., Compound 3C), and a folate-conjugated TLR7 agonist compound having formula XVI (having a non-releasable linker) (e.g., Compound 3D). The cells were subsequently harvested for gene analysis by qPCR and the relative expression of CCL18 (FIG. 14A), CD206 (FIG. 14B), and IL-1β (FIG. 14C) analyzed.

[2] = system: M2-induced THP-1 macrophages; test: Secreted CCL18 and IL-1β in THP-1 supernatants by ELISA; type: cell-based, human
Description: FIGS. 6A-6D show graphical data representative of various marker levels measured from M2-induced THP-1 macrophages treated with different concentrations of drugs for 48 hours (FIGS. 6A and 6B) or for 2 hours, then displaced with fresh medium and cultured for the remaining 46 hours (FIGS. 6C and 6D). In both cases, cell supernatants were collected and secreted CCL18 protein and IL-1β was detected by ELISA.
Further, to ensure that the above mRNA analyses accurately reflected the levels of anti-inflammatory cytokines produced by IL-4, IL-6 plus IL-13 stimulated THP-1 cells, the concentrations of CCL18 and IL-1β polypeptides in the THP-1 supernatants were quantitated by ELISA assay.
CCL18 and IL-1β were quantified in induced THP-1 cell supernatants using a human DuoSet ELISA Development System (R&D Systems Europe, Abingdon, UK: #DY394-05) and an IL-1 beta Human ELISA Kit (Thermo Fisher Scientific, Waltham, MA; #BMS224-2) as described by manufactures. BALF samples were analyzed for mouse IFN-γ using ELISA MAX™ Deluxe (Biolegend, San Diego, CA; #430804).
Additionally, cell supernatants were collected and secreted CCL18 protein was detected by ELISA.

[3] = system: M2-induced THP-1 macrophages; test: Reprogramming of M2-polarized THP-1 macrophages, marker mRNA by qPCR; type: cell-based, human; conditions: 48 hours incubation, FIGS. 3A-3F, compared with nontargeted Compound 1A
[4] = 2 hours with drug, then drug-free medium
[5] = continuous incubation 48 hours, ELISA

Description for healthy mice: (FIGS. 20A-C) Measurement of plasma IL-6 (FIG. 20A), IFNα (FIG. 20B) and TNFα (FIG. 20C) (n=3). […] The effect of drug concentration on plasma levels of IL-6 (FIG. 20D), IFNα (FIG. 20E), and TNFα (FIG. 20F) was determined at 1.5 hours, 1 hour, or 1 hour after treatment, respectively (n=2) (FIG. 20G).
The effect of drug on plasma levels of IL-6 (FIG. 23C) and TNFα (FIG. 23D) was determined at 1 hour or 1.5 hours after treatment.

CCCCc1nc2c(N)nc3ccccc3c2n1CC(C)(C)OC(=O)OCCSSCC(NC(=O)CCC(NC(=O)c1ccc(NCc2cnc3nc(N)[nH]c(=O)c3n2)cc1)C(=O)O)C(=O)O (stereo not drawn) [Compound 1B]
systemic cytokine release (plasma IL-6, IFNα, TNFα) (healthy mice; 10 nmol tail vein): does not
inflammatory cytokine release, dose comparison (healthy mice; plasma at 1 or 1.5 hours, varied dose): stimulates less inflammatory cytokine release than half the dose of Compound 1A
anti-inflammatory/M2-type markers (CCL18, CD206, IL-1β, PDGFβ mRNA) ([1]; 2 hours incubation, harvested at once or after further 46 hours): downregulated anti-inflammatory/M2-type markers of macrophages more than Compound 1A
TNFα induction [1, 4]: dramatically improved
potency in reprogramming [1, 4]: superior potency relative to Compound 1A
secreted CCL18 polypeptide [2, 5]: reductions
secreted IL-1β polypeptide [2, 5]: reductions
reduction of secreted CCL18 and IL-1β, comparison of 1B with 1A ([2]; drug exposure limited to 2 hours, then 46 hours fresh medium): superior
M2 to M1 marker changes, magnitude of impact [3]: somewhat reduced
